{"source": "paper PMC5015098", "about": "“Purification, characterization, cytotoxicity and anticancer activities of L-asparaginase, anti-colon cancer protein, from the newly isolated alkaliphilic Streptomyces fradiae NEAE-82” (Scientific Reports, 2016)", "tested_on": "T1, L-asparaginase", "T1 construct": "gene EC 3.5.1.1", "conditions": "0.05 M Tris-HCl pH 8.6, 37 °C, 30 min (standard assay)", "data": [{"smiles": "NC(=O)C[C@H](N)C(=O)O", "note": "[L-asparagine]", "values": [{"measurement": "Km", "result": 10.1, "unit": "mM"}]}]}
